Measurements as given in patent publication US20100063008A1, “GELATINOUS ELASTOMER COMPOSITIONS” (Silipos, Inc., priority 2008, published 2010).

Key:
[1] = Exudation of active agents from gel specimens to filter paper discs, quantified by UV, MS, GC and/or HPLC after extraction; format: physicochemical; settings: for Active Agent Transferred from Gel to Filters: 37° C., 0.40 psi; for Total Active Agent Exuded from Gel: cumulative
Experimental: Sample filter paper discs were placed in contact with gel specimens of same diameter under constant low pressure (0.40 psi. (2.8 Mpa)) at 37° C. Multiple time-controlled exposures of the filter paper to the gel were preformed in succession to same side of gel. Quantification of active agent transferred to the filter paper discs was determined by UV, MS, GC and or HPLC analysis after extraction of active agent from the filter paper. Exudation rates was expressed as μg/unit time per unit surface area.
This compound was then divided into three aliquots' of approximately 10 grams each and poured into a 2.625″ diameter aluminum petri dish and allowed to cool to create individual gel samle discs. Subsequently, absorbent cellulose filter blotter paper was die cut to enough 2.625″ diameter discs to be employed as a wicking media for repeated exposure in direct contact with the gel compound under specific conditions as follows.
(§1) Exposure Conditions: 37-40 deg. C., Sample filter paper discs in contact with gel specimens of same diameter were stacked in […]. aluminum petri dishes, gel specimen diameter 2.625″×0.125″ thick, filter paper disc diameter 2.625″ with another petri dish and a 1 kg dead weight on top of stack. Pressure calculated at ˜0.407 psi. (2.8 Mpa) constant. Two replicates per test condition. Repeat exposures at 3 hours then repeat three exposures of 18 hours each, changing discs but keeping same gel specimen and same side of each gel specimen in contact with each successive filter paper disc sample.
The filter paper disc specimens aa through kk were then sent to an analytical laboratory for HPLC and GC analysis along with a small sample of each individual raw ingredient so that the HPLC and GC equipment could be calibrated for the protocol being employed by the lab. This calibration allowed for determining the maximum recoverable (measurable) amount of each ingredient that could be measured using these techniques and would later be used to correct the data. The analytical laboratory then detected and measured the amount of each of the added active agents that was flushed out of the filter paper discs using wet chemistry techniques known to those skilled in the art.
The analytical data was interpreted, and the amounts of each ingredient which was exuded into each filter paper blotter disc specimen, and subsequently extracted using wet chemistry, were then entered into a data analysis spreadsheet and adjusted based on the Analytical Recovery Rate to determine actual concentration of each ingredient extracted.

[2] = Total weight of exudate (oil) absorbed by filter paper blotter discs and theoretical amount of each ingredient exuded; format: physicochemical
Experimental: as §1
Data was calculated to determine the total weight of exudate absorbed by each individual sample filter paper blotter disc test specimen. Calculations were then performed based upon the ratios of ingredients in the gel disc formula to determine the theoretical amount of each ingredient that could have been exuded from the oil if the oil contained the same ratio of ingredients as contained in the control oil sample and in the gel.

[3] = Gel Specimen Number 1, 1 h filter exposure, time 0-1 h
[4] = Gel Specimen Number 1, 3 h filter exposure, time 1-4 h
[5] = Gel Specimen Number 1, 18 h filter exposure, time 4-22 h
[6] = Gel Specimen Number 1, 18 h filter exposure, time 22-40 h
[7] = Gel Specimen Number 1, 18 h filter exposure, time 40-58 h
[8] = Gel Specimen Number 1, Time 1 h
[9] = Gel Specimen Number 1, Time 4 h
[10] = Gel Specimen Number 1, Time 22 h
[11] = Gel Specimen Number 1, Time 40 h
[12] = Gel Specimen Number 1, Time 58 h
[13] = Gel Specimen Number 2, 1 h filter exposure, time 0-1 h
[14] = Gel Specimen Number 2, 3 h filter exposure, time 1-4 h
[15] = Gel Specimen Number 2, 18 h filter exposure, time 4-22 h
[16] = Gel Specimen Number 2, 18 h filter exposure, time 22-40 h
[17] = Gel Specimen Number 2, 18 h filter exposure, time 40-58 h
[18] = Gel Specimen Number 2, Time 1 h
[19] = Gel Specimen Number 2, Time 4 h
[20] = Gel Specimen Number 2, Time 22 h
[21] = Gel Specimen Number 2, Time 40 h
[22] = Gel Specimen Number 2, Time 58 h
[23] = Specimen aa, Hours 1, Cummulative Hours 1
[24] = Specimen bb, Hours 1, Cummulative Hours 1
[25] = Specimen cc, Hours 3, Cummulative Hours 4
[26] = Specimen dd, Hours 3, Cummulative Hours 4
[27] = Specimen ee, Hours 18, Cummulative Hours 22
[28] = Specimen ff, Hours 18, Cummulative Hours 22
[29] = Specimen gg, Hours 18, Cummulative Hours 40
[30] = Specimen hh, Hours 18, Cummulative Hours 40
[31] = Specimen ii, Hours 18, Cummulative Hours 58
[32] = Specimen kk, Hours 18, Cummulative Hours 58

For COC(=O)c1ccccc1O [Methyl Salicylate, reference compound], the “Active Agent Transferred from Gel to Filters” value (from here on “Active Agent Transferred”) [1, 3] was 1005 μg per filter, the “Active Agent Transferred” value [1, 4] was 1694 μg per filter and the “Active Agent Transferred” value [1, 5] was 4812 μg per filter. For the same compound, the “Active Agent Transferred” value [1, 6] was 5165 μg per filter, the “Active Agent Transferred” value [1, 7] was 3882 μg per filter and the “Total Active Agent Exuded from Gel” value [1, 8] was 1005 µg. The “Total Active Agent Exuded from Gel” value [1, 9] was 2699 µg, the “Total Active Agent Exuded from Gel” value [1, 10] was 7511 µg and the “Total Active Agent Exuded from Gel” value [1, 11] was 12675 µg. The “Total Active Agent Exuded from Gel” value [1, 12] was 16558 µg, the “Active Agent Transferred” value [1, 13] was 1753 μg per filter and the “Active Agent Transferred” value [1, 14] was 2506 μg per filter. For the same compound, the “Active Agent Transferred” value [1, 15] was 4847 μg per filter, the “Active Agent Transferred” value [1, 16] was 4271 μg per filter and the “Active Agent Transferred” value [1, 17] was 3729 μg per filter. The “Total Active Agent Exuded from Gel” value [1, 18] was 1753 µg, the “Total Active Agent Exuded from Gel” value [1, 19] was 4259 µg and the “Total Active Agent Exuded from Gel” value [1, 20] was 9106 µg. For the same compound, the “Total Active Agent Exuded from Gel” value [1, 21] was 13376 µg, the “Total Active Agent Exuded from Gel” value [1, 22] was 17106 µg and the “Quantitative Analysis - Islechem u-gram extraction” value (from here on “Quantitative Analysis”) [1, 23] was 854 u-gram. For the same compound, the “Quantitative Analysis” value [1, 24] was 1490 u-gram, the “Quantitative Analysis” value [1, 25] was 1440 u-gram and the “Quantitative Analysis” value [1, 26] was 2130 u-gram. The “Quantitative Analysis” value [1, 27] was 4090 u-gram, the “Quantitative Analysis” value [1, 28] was 4120 u-gram and the “Quantitative Analysis” value [1, 29] was 4390 u-gram. The “Quantitative Analysis” value [1, 30] was 3630 u-gram, the “Quantitative Analysis” value [1, 31] was 3300 u-gram and the “Quantitative Analysis” value [1, 32] was 3170 u-gram. The “Estimated grams of ingredient exuded (theoretical amount from ratios of ingredients in the gel disc formula)” value ([2]; Sample aa, Test Disc 1, Exposed 1 hours) was 0.0022 grams, the “Estimated grams of ingredient exuded (theoretical amount from ratios of ingredients in the gel disc formula)” value ([2]; Sample bb, Test Disc 1 Replicate, Exposed 1 hours) was 0.0031 grams and the “Estimated grams of ingredient exuded (theoretical amount from ratios of ingredients in the gel disc formula)” value ([2]; Sample cc, Test Disc 2, Exposed 3 hours) was 0.0024 grams. The “Estimated grams of ingredient exuded (theoretical amount from ratios of ingredients in the gel disc formula)” value ([2]; Sample dd, Test Disc 2 Replicate, Exposed 3 hours) was 0.0035 grams, the “Estimated grams of ingredient exuded (theoretical amount from ratios of ingredients in the gel disc formula)” value ([2]; Sample ee, Test Disc 3, Exposed 18 hours) was 0.0062 grams and the “Estimated grams of ingredient exuded (theoretical amount from ratios of ingredients in the gel disc formula)” value ([2]; Sample ff, Test Disc 3 Replicate, Exposed 18 hours) was 0.0062 grams. The “Estimated grams of ingredient exuded (theoretical amount from ratios of ingredients in the gel disc formula)” value ([2]; Sample gg, Test Disc 4, Exposed 18 hours) was 0.0064 grams, the “Estimated grams of ingredient exuded (theoretical amount from ratios of ingredients in the gel disc formula)” value ([2]; Sample hh, Test Disc 4 Replicate, Exposed 18 hours) was 0.0057 grams and the “Estimated grams of ingredient exuded (theoretical amount from ratios of ingredients in the gel disc formula)” value ([2]; Sample ii, Test Disc 5, Exposed 18 hours) was 0.0051 grams. The “Estimated grams of ingredient exuded (theoretical amount from ratios of ingredients in the gel disc formula)” value ([2]; Sample kk, Test Disc 5 Replicate, Exposed 18 hours) was 0.0051 grams.

For O=C(O)c1ccccc1O [Salicylic Acid, reference compound], the “Active Agent Transferred” value [1, 3] was 372 μg per filter, the “Active Agent Transferred” value [1, 4] was 793 μg per filter and the “Active Agent Transferred” value [1, 5] was 4765 μg per filter. The “Active Agent Transferred” value [1, 6] was 6600 μg per filter, the “Active Agent Transferred” value [1, 7] was 4035 μg per filter and the “Total Active Agent Exuded from Gel” value [1, 8] was 372 µg. The “Total Active Agent Exuded from Gel” value [1, 9] was 1165 µg, the “Total Active Agent Exuded from Gel” value [1, 10] was 5929 µg and the “Total Active Agent Exuded from Gel” value [1, 11] was 12529 µg. The “Total Active Agent Exuded from Gel” value [1, 12] was 16565 µg, the “Active Agent Transferred” value [1, 13] was 705 μg per filter and the “Active Agent Transferred” value [1, 14] was 1459 μg per filter. The “Active Agent Transferred” value [1, 15] was 5153 μg per filter, the “Active Agent Transferred” value [1, 16] was 4976 μg per filter and the “Active Agent Transferred” value [1, 17] was 3941 μg per filter. For the same compound, the “Total Active Agent Exuded from Gel” value [1, 18] was 705 µg, the “Total Active Agent Exuded from Gel” value [1, 19] was 2164 µg and the “Total Active Agent Exuded from Gel” value [1, 20] was 7316 µg. The “Total Active Agent Exuded from Gel” value [1, 21] was 12293 µg and the “Total Active Agent Exuded from Gel” value [1, 22] was 16234 µg.

With Ceramide III the “Active Agent Transferred” value [1, 3] was 18 μg per filter, the “Active Agent Transferred” value [1, 4] was 18 μg per filter and the “Active Agent Transferred” value [1, 5] was 25 μg per filter. The “Active Agent Transferred” value [1, 6] was 29 μg per filter, the “Active Agent Transferred” value [1, 7] was 10 μg per filter and the “Total Active Agent Exuded from Gel” value [1, 8] was 18 µg. The “Total Active Agent Exuded from Gel” value [1, 9] was 35 µg, the “Total Active Agent Exuded from Gel” value [1, 10] was 60 µg and the “Total Active Agent Exuded from Gel” value [1, 11] was 89 µg. For the same compound, the “Total Active Agent Exuded from Gel” value [1, 12] was 99 µg, the “Active Agent Transferred” value [1, 13] was 20 μg per filter and the “Active Agent Transferred” value [1, 14] was 24 μg per filter. The “Active Agent Transferred” value [1, 15] was 22 μg per filter, the “Active Agent Transferred” value [1, 16] was 13 μg per filter and the “Active Agent Transferred” value [1, 17] was 20 μg per filter. The “Total Active Agent Exuded from Gel” value [1, 18] was 20 µg, the “Total Active Agent Exuded from Gel” value [1, 19] was 43 µg and the “Total Active Agent Exuded from Gel” value [1, 20] was 65 µg. The “Total Active Agent Exuded from Gel” value [1, 21] was 78 µg, the “Total Active Agent Exuded from Gel” value [1, 22] was 98 µg and the “Quantitative Analysis” value [1, 23] was 17 u-gram. The “Quantitative Analysis” value [1, 24] was 19 u-gram, the “Quantitative Analysis” value [1, 25] was 17 u-gram and the “Quantitative Analysis” value [1, 26] was 23 u-gram. For the same compound, the “Quantitative Analysis” value [1, 27] was 24 u-gram, the “Quantitative Analysis” value [1, 28] was 21 u-gram and the “Quantitative Analysis” value [1, 29] was 28 u-gram. The “Quantitative Analysis” value [1, 30] was 13 u-gram, the “Quantitative Analysis” value [1, 31] was 9.6 u-gram and the “Quantitative Analysis” value [1, 32] was 19 u-gram.
